Results: ChEMBL document CHEMBL1130359, “In vivo immunosuppressive activity of some cyclolignans” (Bioorg Med Chem Lett, 1997)
Converted amounts (≈) assume the structure as drawn.

Tests used:
Mus musculus [1] = test: Tested in vivo for immunosuppressive activity in mouse using allogenic skin grafting technique(SG); graft survival relative to cyclophosphamide at a dose of 15.0 mg/kg; assay type: functional
[2] = Tested in vitro for cytotoxicity against […](LcV) in cells; assay type: functional
Mus musculus [3] = test: Tested in vivo for immunosuppressive activity in mouse using graft vs. Host rejection technique(GVHR); spleen weight normalized to D8 body weight at a dose of 15.0 mg/kg; assay type: functional
Mus musculus [4] = test: Tested in vivo for immunosuppressive activity in mouse using graft vs. Host rejection technique(GVHR); % suppression at a dose of 15.0 mg/kg.; assay type: functional
Mus musculus [5] = test: Tested in vivo for immunosuppressive activity in mouse using allogenic skin grafting technique(SG); weight lost at a dose of 1.50 mg/kg; assay type: functional; settings: dose 1.5 mg/kg
Mus musculus [6] = test: Tested in vivo for immunosuppressive activity in mouse using graft vs. Host rejection technique(GVHR); weight change at a dose of 1.5 mg/kg.; assay type: functional
Mus musculus [7] = test: Tested in vivo for immunosuppressive activity in mouse using allogenic skin grafting technique(SG); weight at a dose of 0.15 mg/kg; assay type: functional
Mus musculus [8] = test: Tested in vivo for immunosuppressive activity in mouse using allogenic skin grafting technique(SG); weight lost at a dose of 0.15 mg/kg; assay type: functional
Mus musculus [9] = species on record: Mus musculus; test: Tested for immunosuppressive activity in mouse using allogenic MLR method; assay type: functional, organism-based
Mus musculus [10] = test: Tested in vivo for immunosuppressive activity in mouse using allogenic skin grafting technique(SG); mean graft survival at a dose of 15.0 mg/kg.; assay type: functional
Mus musculus [11] = test: Tested in vivo for immunosuppressive activity in mouse using graft vs. Host rejection technique(GVHR); spleen weight normalized to D8 body weight at a dose of 1.5 mg/kg; assay type: functional
Mus musculus [12] = test: Tested in vivo for immunosuppressive activity in mouse using graft vs. Host rejection technique(GVHR); spleen weight normalized to D8 body weight at a dose of 0.15 mg/kg; assay type: functional
Mus musculus [13] = test: Tested in vivo for immunosuppressive activity in mouse using allogenic skin grafting technique(SG); mean graft survival at a dose of 0.15 mg/kg; assay type: functional
Mus musculus [14] = test: Tested in vivo for immunosuppressive activity in mouse using allogenic skin grafting technique(SG); graft survival relative to cyclophosphamide at a dose of 0.15 mg/kg; assay type: functional
Mus musculus [15] = test: Tested in vivo for immunosuppressive activity in mouse using allogenic skin grafting technique(SG); mean graft survival at a dose of 1.5 mg/kg; assay type: functional
Mus musculus [16] = test: Tested in vivo for immunosuppressive activity in mouse using graft vs. Host rejection technique(GVHR); spleen index at a dose of 15.0 mg/kg; assay type: functional
Mus musculus [17] = test: Tested in vivo for immunosuppressive activity in mouse using allogenic skin grafting technique(SG); graft survival relative to cyclophosphamide at a dose of 1.5 mg/kg; assay type: functional
Mus musculus [18] = test: Tested in vivo for immunosuppressive activity in mouse using graft vs. Host rejection technique(GVHR); % suppression at a dose of 1.5 mg/kg; assay type: functional
Mus musculus [19] = test: Tested in vivo for immunosuppressive activity in mouse using graft vs. Host rejection technique(GVHR); weight at a dose of 15 mg/kg; assay type: functional
Mus musculus [20] = test: Tested in vivo for immunosuppressive activity in mouse using graft vs. Host rejection technique(GVHR); body weight at a dose of 1.5 mg/kg; assay type: functional
Mus musculus [21] = test: Tested in vivo for immunosuppressive activity in mouse using allogenic skin grafting technique(SG); weight at a dose of 15 mg/kg; assay type: functional
[22] = Non-cytotoxic IMS activity (ratio LcV/MLR) was determined; assay type: functional
Mus musculus [23] = test: Tested in vivo for immunosuppressive activity in mouse using graft vs. Host rejection technique(GVHR);% suppression at a dose of 0.15 mg/kg; assay type: functional
Mus musculus [24] = test: Tested in vivo for immunosuppressive activity in mouse using allogenic skin grafting technique(SG); weight at a dose of 1.50 mg/kg; assay type: functional; settings: dose 1.5 mg/kg
Mus musculus [25] = test: Tested in vivo for immunosuppressive activity in mouse using graft vs. Host rejection technique(GVHR); weight change at a dose of 0.15 mg/kg; assay type: functional
Mus musculus [26] = test: Tested in vivo for immunosuppressive activity in mouse using graft vs. Host rejection technique(GVHR); spleen index at a dose of 1.5 mg/kg; assay type: functional
Mus musculus [27] = test: Tested in vivo for immunosuppressive activity in mouse using graft vs. Host rejection technique(GVHR); body weight at a dose of 15.0 mg/kg; assay type: functional
Mus musculus [28] = test: Tested in vivo for immunosuppressive activity in mouse using graft vs. Host rejection technique(GVHR); body weight at a dose of 0.15 mg/kg.; assay type: functional
Mus musculus [29] = test: Tested in vivo for immunosuppressive activity in mouse using graft vs. Host rejection technique(GVHR); spleen index at a dose of 0.15 mg/kg; assay type: functional
Mus musculus [30] = test: Tested in vivo for immunosuppressive activity in mouse using graft vs. Host rejection technique(GVHR); weight change at a dose of 15.0 mg/kg; assay type: functional

In the case of COc1cc([C@@H]2c3cc(O)c(O)cc3[C@H](O)[C@H]3COC(=O)[C@H]23)cc(OC)c1OC [6,7-O,O-DEMETHYLENEPODOPHYLLOTOXIN], the graft survival (Mus musculus [1]) is reported as 1.09 days, the Cytotoxicity [2] is reported as >27.5 µg/mL and the Spleen weight (Mus musculus [3]) is reported as 5.75 g. It also gave an Activity (Mus musculus [4]) of 44%, a Body weight (Mus musculus [5]) of 1 g and a Weight change (Mus musculus [6]) of 2.9%. The Body weight (Mus musculus [7]) was 18.7 g, the Body weight (Mus musculus [8]) was 0.7 g and the IC50 (Mus musculus [9]) was 5.63 ng/mL (≈ 0.014 µM). For the same molecule, the Mean graft survival (Mus musculus [10]) was 10.7 days, the Spleen weight (Mus musculus [11]) was 5.2 g and the Spleen weight (Mus musculus [12]) was 4.1 g. For the same molecule, the Mean graft survival (Mus musculus [13]) was 10 days, the graft survival (Mus musculus [14]) was 1.02 days and the Mean graft survival (Mus musculus [15]) was 12.5 days. It also gave an SI (Mus musculus [16]) of 1.15, a graft survival (Mus musculus [17]) of 1.28 days and an Activity (Mus musculus [18]) of 85%. It also gave a Body weight (Mus musculus [19]) of 17.8 g, a Body weight (Mus musculus [20]) of 16.8 g and a Body weight (Mus musculus [21]) of 1.6 g. The Ratio [22] was >4885, the Activity (Mus musculus [23]) was 167% and the Body weight (Mus musculus [24]) was 18.5 g. For the same molecule, the Weight change (Mus musculus [25]) was -1.8%, the SI (Mus musculus [26]) was 1.04 and the Body weight (Mus musculus [27]) was 16.3 g. The Body weight (Mus musculus [28]) was 16.5 g, the SI (Mus musculus [29]) was 0.82 and the Weight change (Mus musculus [30]) was 1.8%.
